Test results taken from ChEMBL document CHEMBL1201862, “PubChem BioAssay data set” (2004).
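Compound exposure: 48 hours, 5 concentrations, 96-well plates. GI50 is the concentration that inhibits growth by half.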 The source made the active and inactive calls. Rule as the data show it: active = GI50 up to about 1.1 µM and inactive = higher. Positions of bridges follow the written chain, without caps; N, C: chain ends. Residues, ends and D or L forms follow the SMILES beside them.

Columns and labels:
Experiment in all cases: DTP human tumour cell line panel, 48 h
T47D = system: T47D
HT-29 = system: HT-29
UACC-257 = system: UACC-257
NCI-H522 = system: NCI-H522
UO-31 = system: UO-31
LOX IMVI = system: LOX IMVI
BT-549 = system: BT-549
SK-MEL-28 = system: SK-MEL-28
HOP-62 = system: HOP-62
SF-539 = system: SF-539
OVCAR-4 = system: OVCAR-4
SNB-19 = system: SNB-19
UACC-62 = system: UACC-62
OVCAR-5 = system: OVCAR-5
Hs-578T = system: Hs-578T
PC-3 = system: PC-3
U-251 = system: U-251
NCI-H23 = system: NCI-H23
A498 = system: A498
EKVX = system: EKVX

Row | SMILES | GI50 (T47D) | GI50 (HT-29) | GI50 (UACC-257) | GI50 (NCI-H522) | GI50 (UO-31) | GI50 (LOX IMVI) | GI50 (BT-549) | GI50 (SK-MEL-28) | GI50 (HOP-62) | GI50 (SF-539) | GI50 (OVCAR-4) | GI50 (SNB-19) | GI50 (UACC-62) | GI50 (OVCAR-5) | GI50 (Hs-578T) | GI50 (PC-3) | GI50 (U-251) | GI50 (NCI-H23) | GI50 (A498) | GI50 (EKVX)
1 | Cc1ccc(SCC(CF)OC(C)n2cnc3c(Cl)nc(N)nc32)cc1 (stereo not drawn) | 54.6 µM (inactive) | > 100 µM (inactive) | 19.3 µM (inactive) | 18.7 µM (inactive) | 42.5 µM (inactive) | 70.8 µM (inactive) | 16 µM (inactive) | > 100 µM (inactive) | > 100 µM (inactive) | > 100 µM (inactive) | 16 µM (inactive) | > 100 µM (inactive) | > 100 µM (inactive) | > 100 µM (inactive) | > 100 µM (inactive) | 90.6 µM (inactive) | > 100 µM (inactive) | 57.4 µM (inactive) |  | 
2 | COc1cc2c(cc1OC)-c1c(oc3cc(OC4OC(CO)C(O)C(O)C4O)c(OC)cc3c1=O)C(O)O2 (stereo not drawn) |  | > 100 µM (inactive) | > 100 µM (inactive) | > 100 µM (inactive) | > 100 µM (inactive) | > 100 µM (inactive) | > 100 µM (inactive) | > 100 µM (inactive) | > 100 µM (inactive) | > 100 µM (inactive) | > 100 µM (inactive) | > 100 µM (inactive) | > 100 µM (inactive) | > 100 µM (inactive) | > 100 µM (inactive) | > 100 µM (inactive) | > 100 µM (inactive) | > 100 µM (inactive) | > 100 µM (inactive) | > 100 µM (inactive)
3 | Cc1cc(C)c2ccc(N3CCNCC3)nc2n1 |  | 57.7 µM (inactive) | > 100 µM (inactive) | > 100 µM (inactive) | 41.7 µM (inactive) | > 100 µM (inactive) | > 100 µM (inactive) | > 100 µM (inactive) | > 100 µM (inactive) | > 100 µM (inactive) | > 100 µM (inactive) | > 100 µM (inactive) | > 100 µM (inactive) | > 100 µM (inactive) | > 100 µM (inactive) | > 100 µM (inactive) | > 100 µM (inactive) | > 100 µM (inactive) |  | > 100 µM (inactive)
4 | O=C(c1ccc(/N=C/c2ccccc2O)cc1)c1ccc(/N=C/c2ccccc2O)cc1 | 62.8 µM (inactive) | > 100 µM (inactive) |  | > 100 µM (inactive) | > 100 µM (inactive) | > 100 µM (inactive) | > 100 µM (inactive) | > 100 µM (inactive) | > 100 µM (inactive) | > 100 µM (inactive) | > 100 µM (inactive) | > 100 µM (inactive) | > 100 µM (inactive) | > 100 µM (inactive) |  | > 100 µM (inactive) | > 100 µM (inactive) | > 100 µM (inactive) | > 100 µM (inactive) | > 100 µM (inactive)
5 | Cc1cccc(C)c1N1C(=O)C2c3[nH]c4ccccc4c3C3CCC(C(C)(C)C)CC3C2C1=O (stereo not drawn) |  | 10.3 µM (inactive) | 16.5 µM (inactive) |  | 10.8 µM (inactive) | 10.1 µM (inactive) | 20 µM (inactive) | 19.9 µM (inactive) | 2.43 µM (inactive) | 17.5 µM (inactive) |  | 62.4 µM (inactive) | 16.1 µM (inactive) | 24.6 µM (inactive) | 16.6 µM (inactive) | 6.44 µM (inactive) | 16.8 µM (inactive) | 14.8 µM (inactive) | 15.7 µM (inactive) | 7.16 µM (inactive)
6 | Cc1ccc(/C(O)=C/c2nc3ccccc3oc2=O)cc1 | 77.6 µM (inactive) | > 100 µM (inactive) | > 100 µM (inactive) | 16.7 µM (inactive) | 40.1 µM (inactive) |  | 44.4 µM (inactive) |  | > 100 µM (inactive) | > 100 µM (inactive) | > 100 µM (inactive) | > 100 µM (inactive) | 37.7 µM (inactive) | > 100 µM (inactive) | 46.9 µM (inactive) | 50.1 µM (inactive) | > 100 µM (inactive) | 72.1 µM (inactive) | 78.3 µM (inactive) | > 100 µM (inactive)
7 | O=c1[nH]c(N/N=C\C(O)C(O)C(O)CO)nc2ccccc12 (stereo not drawn) | > 100 µM (inactive) | > 100 µM (inactive) | > 100 µM (inactive) |  | > 100 µM (inactive) | > 100 µM (inactive) | > 100 µM (inactive) | > 100 µM (inactive) | > 100 µM (inactive) | > 100 µM (inactive) |  | > 100 µM (inactive) | > 100 µM (inactive) | > 100 µM (inactive) | > 100 µM (inactive) | > 100 µM (inactive) | > 100 µM (inactive) | > 100 µM (inactive) | > 100 µM (inactive) | > 100 µM (inactive)
8 | COc1cc2c(cc1OCCCC(=O)Nc1cc(C(=O)Nc3cc(C(=O)NCCCN(C)C)n(C)n3)n(C)n1)N=CC1CCCN1C2=O (stereo not drawn) | 14.2 µM (inactive) | 17 µM (inactive) | 17.8 µM (inactive) | 7 µM (inactive) | 16.7 µM (inactive) | 20.7 µM (inactive) | 12.1 µM (inactive) | 16.7 µM (inactive) | 20.1 µM (inactive) | 21.7 µM (inactive) | 13.3 µM (inactive) | 12.6 µM (inactive) | 20.1 µM (inactive) | 19.4 µM (inactive) |  | 31.8 µM (inactive) | 17 µM (inactive) | 17.2 µM (inactive) | 0.411 µM (active) | 34 µM (inactive)
9 | CCC(C)C1NC(=O)C(CC(C)C)NC(=O)C(C(C)C)NC(=O)C2CSSCC(NC1=O)C(=O)N2 (stereo not drawn) (cyclo(CCVLI); disulfide 1-2; configuration not given here) | 0.0305 µM (active) | 0.177 µM (active) | 0.141 µM (active) | 0.142 µM (active) | 2.16 µM (inactive) | 0.0573 µM (active) | 0.198 µM (active) | 0.122 µM (active) | 0.186 µM (active) | 0.144 µM (active) | 0.18 µM (active) | 0.166 µM (active) | 0.0904 µM (active) | 0.16 µM (active) | 0.043 µM (active) | 0.147 µM (active) | 0.0385 µM (active) | 0.138 µM (active) |  | 0.15 µM (active)
10 | CC1(C)CCCCCCCCCC(C)(CCCO)C1=O (stereo not drawn) | 15.6 µM (inactive) | 13.7 µM (inactive) | 17.7 µM (inactive) | 15.4 µM (inactive) | 12 µM (inactive) | 17.6 µM (inactive) | 17.7 µM (inactive) | 18.2 µM (inactive) | 16.6 µM (inactive) |  | 15.5 µM (inactive) | 17.8 µM (inactive) | 18.4 µM (inactive) | 15.5 µM (inactive) | 20.6 µM (inactive) | 14 µM (inactive) | 16.8 µM (inactive) | 15.5 µM (inactive) | 18.5 µM (inactive) | 15.8 µM (inactive)
11 | COC(=O)[C@H](C)NC(=O)[C@H](NS(=O)(=O)c1nc2ccccc2s1)c1ccccc1 | 15.3 µM (inactive) | 39.4 µM (inactive) | 12.9 µM (inactive) |  | 19.7 µM (inactive) | 15.6 µM (inactive) | 34.7 µM (inactive) | 17 µM (inactive) | 29.4 µM (inactive) | 15.6 µM (inactive) | 26.2 µM (inactive) | 27.4 µM (inactive) | 14.9 µM (inactive) |  | 8.2 µM (inactive) | 38.8 µM (inactive) | 20.5 µM (inactive) | 36.3 µM (inactive) |  | 47.6 µM (inactive)
12 | C=C1C(=O)[C@]23C[C@H]1C[C@@H](O)[C@H]2[C@]1(COC3=O)[C@@H](OC(C)=O)CC[C@@](C)(COC(C)=O)[C@H]1C=O [LOXOTHYRIN A] | 11.7 µM (inactive) | > 50 µM (inactive) | > 50 µM (inactive) | 7.28 µM (inactive) | > 50 µM (inactive) | > 50 µM (inactive) | 23.7 µM (inactive) | 19.5 µM (inactive) | > 50 µM (inactive) |  | > 50 µM (inactive) | > 50 µM (inactive) | > 50 µM (inactive) | > 50 µM (inactive) | 3.97 µM (inactive) | > 50 µM (inactive) | > 50 µM (inactive) | > 50 µM (inactive) | > 50 µM (inactive) | > 50 µM (inactive)
13 | Cc1ccc(/N=C2\C(=N/c3ccc(C)cc3)N(c3ccc(C)cc3)C(=S)N2C(=O)c2ccccc2)cc1 | > 100 µM (inactive) | > 100 µM (inactive) | > 10 µM (inactive) | 43.8 µM (inactive) | > 100 µM (inactive) |  | > 100 µM (inactive) | > 100 µM (inactive) | > 100 µM (inactive) | > 100 µM (inactive) |  | > 100 µM (inactive) | > 100 µM (inactive) | > 100 µM (inactive) | > 100 µM (inactive) | > 100 µM (inactive) | > 100 µM (inactive) | > 100 µM (inactive) |  | > 100 µM (inactive)
14 | CC/C(Cl)=N\OC(=O)Nc1ccc(F)c([N+](=O)[O-])c1 |  | 24.9 µM (inactive) | 17.6 µM (inactive) | 1.93 µM (inactive) | 6.03 µM (inactive) | 15.6 µM (inactive) | 16.7 µM (inactive) | 16.6 µM (inactive) | 19.6 µM (inactive) | 5.32 µM (inactive) | 4.99 µM (inactive) | 17.5 µM (inactive) | 17.3 µM (inactive) | 22.7 µM (inactive) | 17.4 µM (inactive) | 17.3 µM (inactive) | 21.5 µM (inactive) | 13.8 µM (inactive) | 19.9 µM (inactive) | 19.2 µM (inactive)
15 | O=c1/c(=C/c2ccccn2)sc2nc3cc4c(cc3n12)OCCO4 | > 100 µM (inactive) | > 100 µM (inactive) | > 100 µM (inactive) | > 100 µM (inactive) | > 100 µM (inactive) | > 100 µM (inactive) | > 100 µM (inactive) | > 100 µM (inactive) | > 100 µM (inactive) |  | > 100 µM (inactive) | > 100 µM (inactive) | > 100 µM (inactive) | > 100 µM (inactive) | > 100 µM (inactive) | > 100 µM (inactive) | > 100 µM (inactive) | > 100 µM (inactive) | > 100 µM (inactive) | 
